According to patent US12030876B2, “Aryl hydrocarbon receptor (AHR) agonists and uses thereof” (Ikena Oncology, Inc., priority 2019, dated 2024):
Like-named read-outs stand apart in the source and are kept apart here.

What was measured:
[1] = biological target: T1, AHR (Homo sapiens, UniProt P35869); experiment: DRE-Luciferase Reporter Assay, HepG2 (agonist); format: cell-based; conditions: read-out: DRE-Luc HepG2 - Agonist: Average EC50
T1 construct: endogenous in cells; host or cells: HepG2 (human), transfected with a DRE-luciferase reporter only
T1 sequence (P35869 11-848): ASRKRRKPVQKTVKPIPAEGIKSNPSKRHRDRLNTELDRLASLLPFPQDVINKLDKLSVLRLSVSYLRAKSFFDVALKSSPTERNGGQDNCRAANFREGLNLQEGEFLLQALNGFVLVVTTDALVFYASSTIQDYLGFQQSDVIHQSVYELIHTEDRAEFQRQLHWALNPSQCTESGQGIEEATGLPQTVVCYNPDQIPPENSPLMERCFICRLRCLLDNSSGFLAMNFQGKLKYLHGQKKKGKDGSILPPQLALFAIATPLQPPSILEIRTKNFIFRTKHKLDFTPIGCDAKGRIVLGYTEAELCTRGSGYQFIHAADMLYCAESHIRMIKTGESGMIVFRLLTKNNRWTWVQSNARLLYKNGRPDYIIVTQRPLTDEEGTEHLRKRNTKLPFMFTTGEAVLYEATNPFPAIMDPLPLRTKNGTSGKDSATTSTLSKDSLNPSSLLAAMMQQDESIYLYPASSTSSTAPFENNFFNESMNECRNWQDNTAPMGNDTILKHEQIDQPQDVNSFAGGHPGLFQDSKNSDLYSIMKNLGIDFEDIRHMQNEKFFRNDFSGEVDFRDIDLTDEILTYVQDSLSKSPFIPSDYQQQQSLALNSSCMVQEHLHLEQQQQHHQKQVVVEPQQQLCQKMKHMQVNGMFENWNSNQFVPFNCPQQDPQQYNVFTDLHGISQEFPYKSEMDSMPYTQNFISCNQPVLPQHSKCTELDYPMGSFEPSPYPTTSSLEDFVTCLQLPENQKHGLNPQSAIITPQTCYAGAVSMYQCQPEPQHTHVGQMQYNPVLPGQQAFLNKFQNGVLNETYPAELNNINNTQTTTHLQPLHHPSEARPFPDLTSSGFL
Protocol: (§1) DRE-Luciferase Reporter Assay
(§2) AHR binds to Dioxin Responsive Elements (DRE) upstream of genes that it activates. One measure of AHR activity is activation of a reporter gene, such as luciferase, downstream of one or multiple DRE elements. Luciferase activity reflects activation and inhibition of AHR in the cells expressing this reporter.
(§3) Murine Hepa1-6 or Hepa-1c1c7 or other murine cell line with a DRE-luciferase reporter either stably or transiently transfected are plated in media in plates (96-well, 384-well or other plates) and incubated overnight at 37 C in a CO2 incubator. Likewise, human HepG2 or other human cell line with a DRE-luciferase reporter either stably or transiently transfected are plated in media in plates (96-well, 384-well or other plates) and incubated overnight at 37 C in a CO2 incubator.
(§4) The next day, an AHR agonist compound is added. Cells are incubated for 6, 16 or 24 hours or another time point and then lysed for determination of luciferase activity as a read-out of the AHR activation. Luciferase can be measured with a commercial kit such as the Promega Luciferase kit or any kit or reagents that provide the luciferin substrate for measuring luciferase activity. The level of luciferase with only activating ligand (e.g. such as TCDD, kynurenine, ITE (2-(1H-indole-3-ylcarbonyl)-4-thiazolecarboxylic methyl ester), VAF347, BNF (beta-naphthoflavone), ICZ (6-formylindolo(3,2-b) carbazole or other AHR ligands) added is the maximum signal while the luciferase with no ligand is the minimum signal. EC50s can be determined as the concentration which activates half of the maximum luciferase activity.

[2] = biological target: T2, AHR (Mus musculus, UniProt P30561); experiment: P450 CYP1A1 Luciferase Assay, Hepa1.6 (agonist); format: cell-based, murine; conditions: Hepa1.6, Table 2
T2 sequence (P30561 1-848 F348L/P471L): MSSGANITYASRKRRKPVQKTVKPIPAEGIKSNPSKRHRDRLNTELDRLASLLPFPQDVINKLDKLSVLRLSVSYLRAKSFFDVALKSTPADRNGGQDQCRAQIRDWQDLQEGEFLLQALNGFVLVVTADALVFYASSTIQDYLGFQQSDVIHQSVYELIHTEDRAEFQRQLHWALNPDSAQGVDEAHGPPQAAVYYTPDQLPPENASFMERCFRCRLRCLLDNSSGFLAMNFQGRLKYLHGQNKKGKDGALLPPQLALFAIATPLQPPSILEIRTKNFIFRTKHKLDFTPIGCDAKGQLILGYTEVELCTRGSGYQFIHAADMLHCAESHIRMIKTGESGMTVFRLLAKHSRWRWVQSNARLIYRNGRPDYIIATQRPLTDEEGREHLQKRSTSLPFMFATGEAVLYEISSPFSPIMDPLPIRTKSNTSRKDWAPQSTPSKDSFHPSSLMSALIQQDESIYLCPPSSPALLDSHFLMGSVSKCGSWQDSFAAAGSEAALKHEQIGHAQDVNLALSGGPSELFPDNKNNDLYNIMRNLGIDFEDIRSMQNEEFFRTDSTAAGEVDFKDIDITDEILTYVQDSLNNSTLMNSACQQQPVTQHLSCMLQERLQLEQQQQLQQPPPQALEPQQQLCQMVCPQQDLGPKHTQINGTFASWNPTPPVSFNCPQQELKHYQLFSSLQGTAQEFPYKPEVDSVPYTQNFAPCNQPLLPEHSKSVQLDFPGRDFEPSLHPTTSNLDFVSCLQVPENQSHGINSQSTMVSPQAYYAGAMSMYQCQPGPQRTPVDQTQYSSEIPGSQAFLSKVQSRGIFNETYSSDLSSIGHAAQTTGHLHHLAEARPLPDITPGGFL
Protocol: P450 CYP1A1 Luciferase Assay
AHR binds to Dioxin Responsive Elements (DRE) upstream of genes that it activates. One measure of AHR activity is P450 CYP1A1 protein levels determined by measuring CYP1A1 enzyme activity using a luminogenic CYP1A1 luciferin-based substrate. Luciferase activity will reflect CYP1A1 activity resulting from activation of AHR in the cells.
Murine Hepa1-6 or Hepa-1c1c7 or other murine cell line, human HepG2 or other human cell line are plated in media (96-well, 384-well or other plates) and incubated overnight at 37 C in a CO2 incubator.
as §4, with “lysed and incubated with a CYP1A1 luciferase-based substrate (e.g. Luciferin-CEE)” for “lysed”, “3, 6, or 12 hours of another time point. Determination” for “determination”, “CYP1A1 enzyme activity” for “the AHR activation. Luciferase”, “P450 Glo CYP1A1 detection reagent” for “Luciferase kit”, “provide” for “provide the luciferin substrate”

[3] = biological target: T2, AHR; experiment: DRE-Luciferase Reporter Assay, Hepa1.6 (agonist); format: cell-based, murine; conditions: Hepa1.6, Table 3; read-out: DRE-Luc Hepa1.6 - Agonist: Average EC50
Protocol: as §1, §2, §3, §4

SMILES	EC50 ([1]; HepG2, Table 2) [nM]	EC50 [2] [nM]	EC50 ([1]; HepG2, Table 3) [nM]	EC50 [3] [nM]
C[N+](C)(C)CCCC(=O)N(c1cccc(C(F)(F)F)c1)c1nc(-c2cccc(Cl)c2)cs1 [I-29]	10 to 100	100 to 1000		
CN(C)c1cccc(-c2csc(Nc3cccc(C(F)(F)F)c3)n2)c1 [I-30]	10 to 100	100 to 1000		
C[N+](C)(CCO)CCOC(=O)N(c1cccc(C(F)(F)F)c1)c1nc(-c2cccc(Cl)c2)cs1 [I-31]	10 to 100	> 1000		
FC(F)(F)c1cccc(-c2csc(Nc3cccc(Cl)c3)n2)c1 [I-32]	10 to 100	> 1000		
O=C(O)c1cccc(-c2csc(Nc3cccc(C(F)(F)F)c3)n2)c1 [I-33]	100 to 1000	> 1000		
C[N+](C)(C)CCC(=O)Nc1cccc(-c2csc(Nc3cccc(C(F)(F)F)c3)n2)c1 [I-34]	100 to 1000	> 1000		
FC(F)(F)Oc1cccc(-c2csc(Nc3cccc(C(F)(F)F)c3)n2)c1 [I-36]	100 to 1000	> 1000		
O=[N+]([O-])c1cccc(Nc2nc(-c3cccc(Cl)c3)cs2)c1 [I-38]	100 to 1000	> 1000		
CN(CCOCCN(c1cccc(C(F)(F)F)c1)c1nc(-c2cccc(Cl)c2)cs1)CC(=O)O [I-39]	100 to 1000	> 1000		
C[N+](C)(C)CCCC(=O)Nc1cccc(-c2csc(Nc3cccc(C(F)(F)F)c3)n2)c1 [I-40]	100 to 1000	> 1000		
C[N+](C)(CCO)CCCC(=O)N(c1cccc(C(F)(F)F)c1)c1nc(-c2cccc(Cl)c2)cs1 [I-42]	100 to 1000	> 1000		
O=C(c1cccc(-c2csc(Nc3cccc(C(F)(F)F)c3)n2)c1)N1CCOCC1 [I-43]	100 to 1000	> 1000		
N=C(N)c1cccc(-c2csc(Nc3cccc(C(F)(F)F)c3)n2)c1 [I-44]	100 to 1000	> 1000		
COc1ccc(-c2csc(Nc3cccc(C(F)(F)F)c3)n2)cc1 [I-46]	> 1000	> 1000		
C[N+](C)(C)CCNC(=O)Nc1cccc(-c2csc(Nc3cccc(C(F)(F)F)c3)n2)c1 [I-47]	> 1000	> 1000		
CN1CCN(C(=O)c2cccc(-c3csc(Nc4cccc(C(F)(F)F)c4)n3)c2)CC1 [I-48]	> 1000	> 1000		
O=[N+]([O-])c1ccccc1-c1csc(Nc2cccc(C(F)(F)F)c2)n1 [I-49]	> 1000	> 1000		
CN(C)C(=O)c1cccc(-c2csc(Nc3cccc(C(F)(F)F)c3)n2)c1 [I-50]	> 1000	> 1000		
C[N+]1(C)CCN(C(=O)c2cccc(-c3csc(Nc4cccc(C(F)(F)F)c4)n3)c2)CC1 [I-53]	> 1000	> 1000		
FC(F)(F)c1cccc(Nc2nc(-c3cccc(Cl)c3)ns2)c1 [I-58]	< 10	> 1000		
FC(F)(F)c1cccc(Nc2ncc(-c3cccc(Cl)c3)o2)c1 [I-59]	< 10	> 1000		
FC(F)(F)c1cccc(Nc2cc(-c3cccc(Cl)c3)cs2)c1 [I-60]	10 to 100	> 1000		
FC(F)(F)c1cccc(Nc2cc(-c3cccc(Cl)c3)cs2)c1 [I-61]	100 to 1000	> 1000		
O=c1ccc(-c2csc(Nc3cccc(C(F)(F)F)c3)n2)c[nH]1 [I-83]			< 10	100 to 1000
N#Cc1cncc(-c2csc(Nc3cccc(C(F)(F)F)c3)n2)c1 [I-87]			< 10	> 1000
O=[N+]([O-])c1cccc(-c2csc(Nc3cccc(C(F)(F)F)n3)n2)c1 [I-89]			< 10	> 1000
N#Cc1cccc(-c2csc(Nc3cccc(C(F)(F)F)n3)n2)c1 [I-90]			< 10	> 1000
FC(F)(F)c1cccc(Nc2nc(-c3cncc(Cl)c3)cs2)c1 [I-91]			< 10	10 to 100
C[n+]1cccc(-c2csc(Nc3cccc(C(F)(F)F)c3)n2)c1 [I-92]			< 10	100 to 1000
O=c1cc(-c2csc(Nc3cccc(C(F)(F)F)c3)n2)cc[nH]1 [I-93]			< 10	> 1000
